Measurements reported in ChEMBL document CHEMBL3400132, “Design, synthesis and evaluation of novel 5,6,7-trimethoxyflavone-6-chlorotacrine hybrids as potential multifunctional agents for the treatment of Alzheimer's disease” (Bioorg Med Chem Lett, 2015).
Activity calls are given as the source filed them. The calls are words filed in the database; no cut-off is given here.

Key:
[1] = Antioxidant activity assessed as Trolox equivalent per microM of compound after 15 mins by oxygen radical absorbance capacity fluorescein assay; type: physicochemical; details: 0.25 h
Cholinesterase = Cholinesterase (Equus caballus, UniProt P81908); assay: Inhibition of equine serum BChE using acetylthiocholine chloride as substrate after 15 mins by Ellman spectrophotometric method
[2] = Selectivity index, ratio of IC50 for equine serum BChE to IC50 for electric eel AChE
[3] = target: Amyloid-beta precursor protein (Homo sapiens) (UniProt P05067); assay: Inhibition of self-induced Abeta(1 to 42) (unknown origin) aggregation at 25 uM after 24 hrs by Thioflavin T-based fluorometric assay
Acetylcholinesterase [4] = target: Acetylcholinesterase (Electrophorus electricus, UniProt O42275); assay: Inhibition of electric eel AChE using acetylthiocholine chloride as substrate after 15 mins by Ellman spectrophotometric method
Acetylcholinesterase [5] = target: Acetylcholinesterase (Homo sapiens, UniProt P22303); assay: Inhibition of human erythrocyte AChE using acetylthiocholine chloride as substrate after 15 mins by Ellman spectrophotometric method
[6] = target: Acetylcholinesterase (Electrophorus electricus) (UniProt O42275); assay: Mixed-type inhibition of electric eel AChE using acetylthiocholine chloride as substrate after 15 mins by Lineweaver-Burk plot method
[7] = Permeability of the compound in DMSO-PBS/EtOH solution at 100 ug/ml by PAMPA; type: ADME; details: read-out: permeability
PC-12 = assay: Protective activity against H2O2-induced rat PC12 cell injury assessed as cell viability incubated at 5 uM for 3 hrs before H2O2 addition measured after 5 hrs by MTT assay relative to untreated control; type: functional; details: read-out: Activity

Chain of Amyloid-beta precursor protein (Homo sapiens) (P05067 whole entry): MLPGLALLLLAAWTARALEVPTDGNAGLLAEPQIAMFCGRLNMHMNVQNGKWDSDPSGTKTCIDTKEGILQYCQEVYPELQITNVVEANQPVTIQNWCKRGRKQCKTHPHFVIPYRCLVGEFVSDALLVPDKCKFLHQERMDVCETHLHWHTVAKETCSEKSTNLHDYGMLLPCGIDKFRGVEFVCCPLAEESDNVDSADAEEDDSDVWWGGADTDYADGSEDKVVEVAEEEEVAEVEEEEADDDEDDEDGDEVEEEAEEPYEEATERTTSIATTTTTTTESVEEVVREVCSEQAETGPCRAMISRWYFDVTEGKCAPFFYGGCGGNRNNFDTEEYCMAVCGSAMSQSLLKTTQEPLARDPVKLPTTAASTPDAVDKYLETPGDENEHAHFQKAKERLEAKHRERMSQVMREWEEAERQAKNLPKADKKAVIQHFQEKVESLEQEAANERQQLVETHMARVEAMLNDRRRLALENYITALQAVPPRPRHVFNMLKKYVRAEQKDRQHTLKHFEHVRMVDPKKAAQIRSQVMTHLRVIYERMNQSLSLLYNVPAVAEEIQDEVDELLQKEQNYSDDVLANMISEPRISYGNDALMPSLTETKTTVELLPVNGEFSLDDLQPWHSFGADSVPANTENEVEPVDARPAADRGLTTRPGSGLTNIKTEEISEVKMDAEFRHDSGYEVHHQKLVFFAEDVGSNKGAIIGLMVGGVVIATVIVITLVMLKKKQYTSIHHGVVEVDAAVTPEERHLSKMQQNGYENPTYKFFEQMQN
Chain of Cholinesterase (P81908 whole entry): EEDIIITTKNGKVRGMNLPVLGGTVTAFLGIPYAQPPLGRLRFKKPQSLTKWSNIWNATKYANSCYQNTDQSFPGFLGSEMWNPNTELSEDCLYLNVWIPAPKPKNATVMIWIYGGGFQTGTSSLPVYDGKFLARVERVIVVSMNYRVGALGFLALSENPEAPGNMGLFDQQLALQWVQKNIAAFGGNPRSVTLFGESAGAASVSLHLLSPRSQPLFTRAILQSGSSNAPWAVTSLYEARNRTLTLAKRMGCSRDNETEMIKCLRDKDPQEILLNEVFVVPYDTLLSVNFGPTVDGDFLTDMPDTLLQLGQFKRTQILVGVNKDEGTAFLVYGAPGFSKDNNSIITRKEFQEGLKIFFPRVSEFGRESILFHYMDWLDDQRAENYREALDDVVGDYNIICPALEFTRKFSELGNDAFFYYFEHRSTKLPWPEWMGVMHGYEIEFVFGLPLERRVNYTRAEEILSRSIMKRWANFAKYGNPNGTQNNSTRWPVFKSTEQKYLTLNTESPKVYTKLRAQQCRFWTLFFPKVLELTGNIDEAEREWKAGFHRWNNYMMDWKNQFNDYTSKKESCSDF
Chain of Acetylcholinesterase (Electrophorus electricus, UniProt O42275) (O42275 whole entry): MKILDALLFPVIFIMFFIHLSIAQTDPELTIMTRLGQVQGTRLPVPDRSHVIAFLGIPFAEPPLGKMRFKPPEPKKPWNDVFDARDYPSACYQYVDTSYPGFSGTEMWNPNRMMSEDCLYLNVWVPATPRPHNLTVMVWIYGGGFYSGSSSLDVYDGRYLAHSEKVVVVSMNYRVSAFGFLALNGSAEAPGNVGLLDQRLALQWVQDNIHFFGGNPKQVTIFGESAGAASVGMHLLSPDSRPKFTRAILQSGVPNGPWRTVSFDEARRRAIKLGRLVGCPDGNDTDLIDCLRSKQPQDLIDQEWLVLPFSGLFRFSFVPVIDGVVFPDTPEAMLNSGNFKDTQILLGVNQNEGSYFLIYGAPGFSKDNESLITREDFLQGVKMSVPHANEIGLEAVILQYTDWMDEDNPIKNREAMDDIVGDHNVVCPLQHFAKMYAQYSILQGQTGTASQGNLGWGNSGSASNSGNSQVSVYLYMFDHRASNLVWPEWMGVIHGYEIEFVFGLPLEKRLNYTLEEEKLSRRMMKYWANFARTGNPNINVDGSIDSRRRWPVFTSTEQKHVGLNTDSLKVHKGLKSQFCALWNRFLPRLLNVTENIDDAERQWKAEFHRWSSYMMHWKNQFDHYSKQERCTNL
Chain of Acetylcholinesterase (Homo sapiens, UniProt P22303) (P22303 whole entry): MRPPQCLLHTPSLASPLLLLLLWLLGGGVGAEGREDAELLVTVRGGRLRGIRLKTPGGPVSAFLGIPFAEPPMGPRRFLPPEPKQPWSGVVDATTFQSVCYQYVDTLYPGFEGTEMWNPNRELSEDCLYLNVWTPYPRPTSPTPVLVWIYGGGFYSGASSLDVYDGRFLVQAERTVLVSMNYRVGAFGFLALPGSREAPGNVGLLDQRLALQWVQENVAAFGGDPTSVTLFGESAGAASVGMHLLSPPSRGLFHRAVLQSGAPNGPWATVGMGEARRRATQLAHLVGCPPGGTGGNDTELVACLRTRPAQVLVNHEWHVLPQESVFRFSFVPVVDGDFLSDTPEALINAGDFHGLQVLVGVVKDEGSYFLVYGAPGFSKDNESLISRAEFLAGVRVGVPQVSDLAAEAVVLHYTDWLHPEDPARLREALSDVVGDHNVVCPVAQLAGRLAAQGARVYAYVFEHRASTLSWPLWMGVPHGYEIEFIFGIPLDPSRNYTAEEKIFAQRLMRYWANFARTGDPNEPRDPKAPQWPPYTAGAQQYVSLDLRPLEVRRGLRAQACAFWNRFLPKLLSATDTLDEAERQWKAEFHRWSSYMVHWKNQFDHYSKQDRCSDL
Chain of Acetylcholinesterase (Electrophorus electricus) (O42275 24-633 limits assumed): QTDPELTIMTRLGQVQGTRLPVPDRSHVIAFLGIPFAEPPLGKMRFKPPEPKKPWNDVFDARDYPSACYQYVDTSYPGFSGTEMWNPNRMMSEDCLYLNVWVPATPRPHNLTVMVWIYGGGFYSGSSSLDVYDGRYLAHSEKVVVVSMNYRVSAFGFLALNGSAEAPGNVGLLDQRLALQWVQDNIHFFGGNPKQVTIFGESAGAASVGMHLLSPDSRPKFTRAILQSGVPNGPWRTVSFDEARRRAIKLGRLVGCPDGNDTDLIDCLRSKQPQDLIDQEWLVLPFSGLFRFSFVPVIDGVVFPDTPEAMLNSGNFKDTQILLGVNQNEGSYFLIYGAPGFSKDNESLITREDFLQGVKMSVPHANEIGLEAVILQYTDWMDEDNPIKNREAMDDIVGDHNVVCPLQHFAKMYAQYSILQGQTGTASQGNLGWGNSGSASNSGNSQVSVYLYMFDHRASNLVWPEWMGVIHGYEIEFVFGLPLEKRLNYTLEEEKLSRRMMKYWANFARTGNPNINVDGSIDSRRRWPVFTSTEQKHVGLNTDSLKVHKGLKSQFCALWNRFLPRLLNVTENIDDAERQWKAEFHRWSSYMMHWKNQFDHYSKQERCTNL

Nc1c2c(nc3cc(Cl)ccc13)CCCC2
fold change (FC) [1]: 0.17
IC50 (Cholinesterase): 16.5 nM

COc1cc2oc(-c3cccc(OCC(=O)NCCCNc4c5c(nc6cc(Cl)ccc46)CCCC5)c3)cc(=O)c2c(OC)c1OC
fold change (Trolox equivalents (ORAC)) [1]: 0.57
Ratio IC50 [2]: 15.4
IC50 (Cholinesterase): 819 nM
inhibition [3]: 30.6%
IC50 (Acetylcholinesterase [4]): 38.2 nM

COc1cc2oc(-c3ccc(OCC(=O)NCCCCNc4c5c(nc6cc(Cl)ccc46)CCCC5)cc3)cc(=O)c2c(OC)c1OC
fold change (Trolox equivalents (ORAC)) [1]: 0.58
Ratio IC50 [2]: 23.5
IC50 (Cholinesterase): 1240 nM
inhibition [3]: 30.3%
IC50 (Acetylcholinesterase [4]): 52.8 nM

COc1cc2oc(-c3cccc(OCC(=O)NCCCCCCNc4c5c(nc6cc(Cl)ccc46)CCCC5)c3)cc(=O)c2c(OC)c1OC
fold change (Trolox equivalents (ORAC)) [1]: 0.47
Ratio IC50 [2]: 20.5
IC50 (Cholinesterase): 969 nM
inhibition [3]: 34.3%
IC50 (Acetylcholinesterase [5]): 32.5 nM
IC50 (Acetylcholinesterase [4]): 47.2 nM

COc1cc2oc(-c3ccc(OCC(=O)NCCCCCCNc4c5c(nc6cc(Cl)ccc46)CCCC5)cc3)cc(=O)c2c(OC)c1OC
fold change (Trolox equivalents (ORAC)) [1]: 0.52
Ratio IC50 [2]: 10.3
IC50 (Cholinesterase): 321 nM
inhibition [3]: 35.5%
IC50 (Acetylcholinesterase [5]): 21.6 nM
IC50 (Acetylcholinesterase [4]): 41.3 nM

COc1cc2oc(-c3ccc(OCC(=O)NCCCCCNc4c5c(nc6cc(Cl)ccc46)CCCC5)cc3)cc(=O)c2c(OC)c1OC
inhibition [6]: Active
fold change (Trolox equivalents (ORAC)) [1]: 0.55
Ratio IC50 [2]: 36.2
IC50 (Cholinesterase): 463 nM
inhibition [3]: 33.8%
Papp at 100 ug/ml [7]: 7.92 ×10⁻⁶ cm/s
IC50 (Acetylcholinesterase [5]): 6.9 nM
viability at 5 µM (PC-12): 45.3%
IC50 (Acetylcholinesterase [4]): 12.8 nM

COc1cc2oc(-c3ccc(OCC(=O)NCCCNc4c5c(nc6cc(Cl)ccc46)CCCC5)cc3)cc(=O)c2c(OC)c1OC
fold change (Trolox equivalents (ORAC)) [1]: 0.62
Ratio IC50 [2]: 13.9
IC50 (Cholinesterase): 549 nM
inhibition [3]: 25.6%
IC50 (Acetylcholinesterase [4]): 29.4 nM

COc1cc2oc(-c3cccc(OCC(=O)NCCCCNc4c5c(nc6cc(Cl)ccc46)CCCC5)c3)cc(=O)c2c(OC)c1OC
fold change (Trolox equivalents (ORAC)) [1]: 0.55
Ratio IC50 [2]: 15
IC50 (Cholinesterase): 1020 nM
inhibition [3]: 31.8%
IC50 (Acetylcholinesterase [4]): 68.2 nM

COc1cc2oc(-c3cccc(O)c3)cc(=O)c2c(OC)c1OC
fold change (Trolox equivalents (ORAC)) [1]: 3.6
IC50 (Cholinesterase): > 100000 nM
inhibition [3]: 17.4%
IC50 (Acetylcholinesterase [4]): > 100000 nM

COc1cc2oc(-c3cccc(OCC(=O)NCCCCCNc4c5c(nc6cc(Cl)ccc46)CCCC5)c3)cc(=O)c2c(OC)c1OC
fold change (Trolox equivalents (ORAC)) [1]: 0.53
Ratio IC50 [2]: 12.7
IC50 (Cholinesterase): 291 nM
inhibition [3]: 32.5%
IC50 (Acetylcholinesterase [5]): 17.3 nM
IC50 (Acetylcholinesterase [4]): 20.9 nM

COc1cc2oc(-c3ccc(O)cc3)cc(=O)c2c(OC)c1OC
fold change (Trolox equivalents (ORAC)) [1]: 5.7
IC50 (Cholinesterase): > 100000 nM
inhibition [3]: 11.2%
IC50 (Acetylcholinesterase [4]): > 100000 nM
